Structures can show the parent of a compound that is named as a salt. Where two headings read alike, the source gives them in different places.
Tests used:
[1] = for solubility at room temperature: water
[2] = alcoholic solution of 5-nitroindazole vs aqueous solution of I-2; in words
Experimental: A control composition (A) containing 100 g of inert gelatin in 1600 ml of water was prepared. The solution further contained matting agents and anti-halo dyes. In a second control composition (8) 300 ml of water was replaced by 300 ml of a 1% alcoholic solution of 5-nitroindazole. […] In each sample pH was adjusted to 6.5.

[3] = assay type: physicochemical; conditions: pH 11.5
Experimental: To said basic composition were added 0.46 mmole/l of water soluble 5-nitroindazole precursors according to the invention as specified in table 1 below. In a comparison developer 0.46 mmole of 5-nitroindazole (5-NI) was added per liter. […] Therefore a second comparison developer sample was included in which 5-nitroindazole was first dissolved in 30 ml of N-methyl-pyrrolidone (part B) and then added to the solution, replacing 30 ml of water. In each sample the pH was readjusted to 11.5 with sodium hydroxide.

Row | SMILES | instability problems in gelatineous compositions [2] | solubility at room temperature [1] [g/100 ml] | other results
1 | O=C(c1ccccc1S(=O)(=O)[O-])n1ncc2cc([N+](=O)[O-])ccc21.[K+] | can be overcome | – | solubility at room temperature ([1]; room temperature): 1.7 g/100 ml
2 | Cc1ccc2[nH]nnc2c1 [5-methylbenzotriazole] | – | – | solubility in water ([1]; background section, no temperature given): 0.5 g/100 ml of water
3 | O=[N+]([O-])c1ccc2[nH]ncc2c1 [5-nitroindazole] | instability problems | – | solubility in water [1]: 0.02 g/100 ml of water; solubility in developer solution [3]: only slightly soluble
4 | O=C(c1ccccc1S(=O)(=O)O)n1nnc2ccccc21 [Compound I-3, 1-(2-sulphonatobenzoyl)-benzotriazole triethylamine salt] | – | 5.8 | –
5 | c1ccc2[nH]nnc2c1 [benzotriazole] | – | 1.3 | –
